According to patent US20150190369A1, “QUERCETIN-3-GLUCOSIDE AND USES THEREOF” (priority 2012, published 2015):

How the values were obtained:
Huh7 cells = test: LDL uptake assay with bodipy-LDL; type: cell-based, human; details: Huh7, 5 μM Q3G for 24 h
Protocol: Huh7 cells were seeded in 96-well black-bottom plates at 4×10^4 cells/well in 0.1 ml complete medium and allowed to attach by overnight incubation at 37° C. They were rinsed with PBS-D, overlaid with 0.1 ml of DMEM/10% LPDS and incubated at 37° C. for 24 h. After a PBS-D rinse, they were overlaid with 0.1 ml DMEM/0.5% LPDS containing or not 5 μM Q3G and incubated 37° C. for 24 h. To assay for LDL uptake ability, cells were rinsed, first with pre-warmed (37° C.) PBS-D, then with pre-warmed DMEM/0.5% LPDS. They were overlaid with 75 μl of the latter medium containing […] bodipy-LDL, and then incubated at 37° C. for 15 min or 30 min to allow LDLR-mediated endocytosis of the fluorescent lipoprotein. […] Intracellular fluorescence was measured in a SpectraMax Gemini XS fluorescence plate reader (Molecular Devices) at the excitation and emission wavelengths of 485 and 535 nm, respectively. Non-specific fluorescence was measured by incubating cells in medium containing bodipy-LDL (20 μg/ml) and a 12.5× excess of non-fluorescent LDL (250 μg/ml).
To verify this prediction, cells were incubated overnight in medium supplemented with LPDS to promote expression of the LDLR; they were then treated with 5 μM Q3G for 24 h and exposed to fluorescent bodipy-LDL for 15 or 30 min; after washing, accumulated intracellular LDL was measured by fluorescence spectrometry.

recombinant human PCSK9 = recombinant human PCSK9 (Homo sapiens, UniProt Q8NBP7); test: UV spectrometry of PCSK9-Q3G interaction; type: binding; details: 5 μM PCSK9 with equimolar Q3G in PBS, 5-min incubation
Chain of recombinant human PCSK9 (Q8NBP7 153-692): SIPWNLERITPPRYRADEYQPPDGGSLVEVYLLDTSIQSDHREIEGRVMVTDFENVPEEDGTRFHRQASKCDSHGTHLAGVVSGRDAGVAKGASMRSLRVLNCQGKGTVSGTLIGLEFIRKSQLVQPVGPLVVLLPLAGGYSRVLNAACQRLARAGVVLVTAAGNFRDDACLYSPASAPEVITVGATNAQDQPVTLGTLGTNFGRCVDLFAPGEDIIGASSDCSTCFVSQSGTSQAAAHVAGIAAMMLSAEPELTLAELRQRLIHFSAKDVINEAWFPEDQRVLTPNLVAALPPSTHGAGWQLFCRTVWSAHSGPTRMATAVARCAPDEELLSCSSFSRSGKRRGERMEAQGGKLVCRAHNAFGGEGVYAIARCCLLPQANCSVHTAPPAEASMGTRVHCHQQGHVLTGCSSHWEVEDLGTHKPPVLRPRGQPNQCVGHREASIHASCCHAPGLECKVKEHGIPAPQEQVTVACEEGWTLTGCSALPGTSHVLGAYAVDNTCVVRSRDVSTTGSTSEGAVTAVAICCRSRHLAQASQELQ
Protocol: The data discussed herein indicate that chronic exposure of Huh7 cells to Q3G reduces PCSK9 accumulation in the culture medium by delaying its transit through the secretory pathway. The delay appears not to be caused by impaired proteolytic processing of its precursor. Quercetin is known to bind, covalently in some cases, to selected cellular proteins. […] Purified recombinant PCSK9 (5μM) was mixed with or without equimolar amount of Q3G in phosphate-buffered saline. After a 5-min incubation, the UV spectrum of the mix was taken. […] It is believed that such a binding may alter PCSK9 conformation and/or retard its navigation through the secretory pathway, and, ultimately, diminish its LDL-degrading activity.

PCSK9 mRNA = test: Quantitative RT-PCR for PCSK9 mRNA in Huh7 cells; type: cell-based, human; details: Huh7, 24 h, highest Q3G concentration tested (0 to 10 μM)
Protocol: At passage, Huh7 cells were routinely seeded at sub-confluence (˜10^6 cells/10-cm dish) in Dulbecco's modified Eagle's medium (DMEM) containing 10% fetal bovine serum (FBS) or LPDS (for experiments) and 50 μg/ml gentamycin. They were incubated overnight at 37° C., in a humidified 5% CO2-95% air atmosphere. Cells were treated or not with Q3G at defined concentrations and for defined lengths of time. Media were collected and centrifuged at 200 g for 5 min to sediment suspended cells; supernatants were collected and supplemented with 0.33 volumes of a 3×-concentrated PIC. Cell monolayers were rinsed with ice-cold phosphate-buffered saline (PBS); they were overlaid with […] the RIPA lysis buffer (50 mM Tris-HCl, pH 8, 150 mM NaCl, 1% NP-40, 0.5% Na-deoxycholate and 0.1% SDS) supplemented with 1× PIC. After 20 min in an ice bath, the lysates were centrifuged at 14,000 g and 4° C. for 20 min, and supernatants were collected. Conditioned media and lysates were stored at −20° C. until analysis.
Total RNA was extracted using the Qiagen RNeasy extraction kit. It was reverse transcribed into cDNA using random hexameric primers and the Superscript II RNase H-Reverse Transcriptase. […]
Standard curves were established using varying amounts of purified and quantified cDNA amplicons of each mRNA. […]

ABCG1 = test: Immunoblotting for ABCG1 in MIN6 β-cells; type: cell-based, mouse; details: MIN6, Q3G-treated
Protocol: The corresponding photographs of the immunoblotting results are also shown. MIN6 cells were incubated for 24 h in the presence of 16 μM Q3G. Cell lysates were analyzed by semi-quantitative immunoblotting using different antibodies successively.
Mouse insulinoma MIN6 cells were cultured in a 5% CO2-95% air atmosphere at 37° C. in DMEM medium containing 10% heat-inactivated fetal bovine serum, 1 mM Na-pyruvate, 2 mM L-glutamine, 25 mM D-glucose, and 28 μM β-mercaptoethanol. Q3G at a specific final concentration was supplemented to the culture medium and incubation was conducted for a selected length of time. Media were collected, spun at 600 g to sediment suspended cells, supplemented with 0.5 volumes of 3×RIPA-PIC (1×: 50 mM Tris-HCl, pH 8, 150 mM NaCl, 1% NP-40, 0.5% Na-deoxycholate and 0.1% SDS and PIC). Cells were lysed in 1×RIPA-PIC for immuno-blotting, or in RNA extraction buffer for qRT-PCR.
Cell lysates were fractionated by SDS-PAGE and electrophoretically transferred onto a polyvinylidene fluoride membrane. […] The signal was captured on X-ray film and immunoreactive bands analyzed by densitometry on a Syngene's ChemiGenius^2XE Bio Imaging System (Cambridge, Mass.) within the dynamic range of the instrument. […]

O=c1c(O[C@@H]2O[C@H](CO)[C@@H](O)[C@H](O)[C@H]2O)c(-c2ccc(O)c(O)c2)oc2cc(O)cc(O)c12 [Q3G, quercetin-3-O-β-D-glucoside]
accumulated intracellular LDL versus untreated cells (Huh7 cells; bodipy-LDL for 15 min): 4 fold
accumulated intracellular LDL versus untreated cells (Huh7 cells; bodipy-LDL for 30 min): 2.5 fold
interaction with PCSK9 (changes of optical density and spectral profile) (recombinant human PCSK9): suggest interaction
decrease of PCSK9 mRNA levels (PCSK9 mRNA): one-third
relative amount of ABCG1 protein compared with mRNA (ABCG1): in concordance with the relative amounts of mRNA
